The conditions of data set [1]: background statement; cited from earlier work.
The nature of data set [2]: particle size after micronization in a micronizer. It is filed as physicochemical. The conditions noted are these: pure dry torsemide micronized in a micronizer (Example 1). The source says:
Pure dry torsemide was micronized in a micronizer. The result was micronized torsemide of a particle size of less than 5 micrometer.

In the case of `Cc1cccc(Nc2ccncc2S(=O)(=O)NC(=O)NC(C)C)c1` [Torsemide, 1-Isopropyl-3-[(4-m-toluidino-3-pyridyl)sulfonyl] urea], the solubility in water entry in data set [1] is on record as “essentially insoluble”. Consider `Cc1cccc(Nc2ccncc2S(=O)(=O)NC(=O)NC(C)C)c1` [micronized torsemide, 1-Isopropyl-3-[(4-m-toluidino-3-pyridyl)sulfonyl] urea], for which the particle size result in data set [2] is recorded as “less than 5 micrometer”.

These data come from patent US20020120147A1, “Micronized torsemide” (priority 2000, published 2002).
